From patent US10899770B2, “Crystal form of ACP-196 salt and preparation method, pharmaceutical composition, and use thereof” (Hangzhou SoliPharma Co., Ltd., priority 2017, dated 2021)
Counter-ions that a name gives are not always drawn.

What was measured:
[1] = Solubility test in water; assay type: physicochemical; conditions: for solubility compared with amorphous ACP-196 (ACP-196 of Preparation Example 1): in water, Comparative Example 1; for solubility / Solubility test results: water, 20 mg sample, 25° C. water bath, water added until completely dissolved (not more than 200 mL); for solubility: 25 °C, thermodynamic from solid
Procedure: Solubility test: took 20 mg ACP-196 of Preparation Example 1, 20 mg ACP-196 malate Form 1 of the invention, 20 mg ACP-196 hemifumarate Form 1 of the invention, 20 mg ACP-196 maleate Form 1 of the invention, 20 mg ACP-196 phosphate Form 1 of the invention and 20 mg ACP-196 sulfate Form 1 of the invention, then placed in the beaker respectively added 1.0 mL water, stirred for 1 to 2 minutes under the condition of 25° C. water bath, observed and if not totally dissolved, added water (not more than 200 mL in total) until it's completely dissolved.

[2] = Isothermal sorption (dynamic vapor sorption), weight change with relative humidity; assay type: physicochemical; conditions: for hygroscopicity compared with amorphous ACP-196: 30 to 80% RH; for weight change (isothermal sorption plot): between 30% and 80% relative humidity
Procedure: Dynamic vapor sorption data and isothermal sorption data were collected on TA Instruments Q5000 TGA. Method: A sample of 1 to 10 mg was placed in a platinum pan; the weight change of the sample during the change in relative humidity from 0% to 80% to 0% was measured.

SMILES	solubility compared with amorphous ACP-196 (ACP-196 of Preparation Example 1) [1]	solubility [1]	hygroscopicity compared with amorphous ACP-196 [2]	Solubility test results [1]	weight change (isothermal sorption plot) [2]	weight change (isothermal sorption plot) ([2]; listed as amorphous ACP-196)
CC#CC(=O)N1CCC[C@H]1c1nc(-c2ccc(C(=O)Nc3ccccn3)cc2)c2c(N)nccn12.O=C(O)/C=C/C(=O)O [ACP-196 hemifumarate Form 1]	higher solubility	910 µg/mL	less hygroscopic	–	–	–
CC#CC(=O)N1CCC[C@H]1c1nc(-c2ccc(C(=O)Nc3ccccn3)cc2)c2c(N)nccn12 [ACP-196 malate Form 1]	higher solubility	–	–	1430 µg/mL	–	–
CC#CC(=O)N1CCC[C@H]1c1nc(-c2ccc(C(=O)Nc3ccccn3)cc2)c2c(N)nccn12.O=C(O)/C=C\C(=O)O [ACP-196 maleate Form 1]	higher solubility	1330 µg/mL	less hygroscopic	–	–	–
CC#CC(=O)N1CCC[C@H]1c1nc(-c2ccc(C(=O)Nc3ccccn3)cc2)c2c(N)nccn12 [ACP-196 phosphate Form 1]	higher solubility	–	less hygroscopic	–	–	–
CC#CC(=O)N1CCC[C@H]1c1nc(-c2ccc(C(=O)Nc3ccccn3)cc2)c2c(N)nccn12 [ACP-196 sulfate Form 1]	higher solubility	–	–	–	–	–
CC#CC(=O)N1CCC[C@H]1c1nc(-c2ccc(C(=O)Nc3ccccn3)cc2)c2c(N)nccn12 [ACP-196]	–	–	–	Less than 0.1 mg/mL	5.5%	5.5%
